Values quoted from earlier work, collected in patent US20040147461A1, “Motilide compounds” (priority 2000, published 2004).

What was measured:
[1] = statement in words
[2] = molecular target: motilin receptor (Homo sapiens, UniProt O43193); conditions: statement in words
Chain of motilin receptor (O43193 whole entry, species assumed): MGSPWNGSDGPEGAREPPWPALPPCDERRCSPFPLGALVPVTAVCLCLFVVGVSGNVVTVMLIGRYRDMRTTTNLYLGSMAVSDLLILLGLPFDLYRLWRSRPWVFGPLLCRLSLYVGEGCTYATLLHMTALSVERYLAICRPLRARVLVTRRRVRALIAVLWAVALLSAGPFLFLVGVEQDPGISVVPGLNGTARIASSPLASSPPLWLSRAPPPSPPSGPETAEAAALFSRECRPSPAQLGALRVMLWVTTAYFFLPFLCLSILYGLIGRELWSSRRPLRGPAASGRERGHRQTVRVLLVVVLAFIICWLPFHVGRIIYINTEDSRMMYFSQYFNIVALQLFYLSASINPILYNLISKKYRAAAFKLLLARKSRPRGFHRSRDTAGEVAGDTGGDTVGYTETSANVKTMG

Row | SMILES | antimicrobial activity [1] | motilin agonist activity [2]
1 | CC[C@H]1OC(=O)[C@H](C)[C@@H](O[C@H]2C[C@@](C)(OC)[C@@H](O)[C@H](C)O2)[C@H](C)[C@@H](O[C@@H]2O[C@H](C)C[C@H](N(C)C)[C@H]2O)[C@@]2(C)CC(C)=C(O2)[C@H](C)[C@@H](O)[C@]1(C)O [enol ether, 8,9-anhydroerythromycin A 6,9-hemiacetal] | does not also posses antimicrobial activity | 
2 | CC[C@H]1OC(=O)[C@H](C)[C@@H](O[C@H]2C[C@@](C)(OC)[C@@H](O)[C@H](C)O2)[C@H](C)[C@@H](O[C@@H]2O[C@H](C)C[C@H](N(C)C)[C@H]2O)[C@](C)(O)C[C@@H](C)C(=O)[C@H](C)[C@@H](O)[C@]1(C)O [erythromycin A] |  | motilin agonists
